# pIC50: −log10 of the molar value.
# System: 415267-285-R-J2-PDC complex spheroid viability
# Experiment: Anticancer human tumor 415267-285-R-J2-PDC patient-derived breast carcinoma cell line growth inhibition [POLQ]
# Settings: for pIC50: curve of first compound; for viability, T/C: stronger effect = lower value
# How it was run: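 Three-cell-type spheroids modelling solid tumor plus stroma served as the readout system; POL inhibitors were tested individually and in combination, concentration ranges set by clinical Cmax where known.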
# [1] = second compound 0.0316 µM, first compound 0.0316 µM
# [2] = second compound 0.0316 µM, first compound 0.1 µM
# [3] = second compound 0.0316 µM, first compound 0.316 µM
# [4] = second compound 0.0316 µM, first compound 1 µM
# [5] = second compound 0.0316 µM, first compound 3.16 µM
# [6] = second compound 0.0316 µM, first compound 10 µM
# [7] = second compound 0.1 µM, first compound 0.0316 µM
# [8] = second compound 0.1 µM, first compound 0.1 µM
# [9] = second compound 0.1 µM, first compound 0.316 µM
# [10] = second compound 0.1 µM, first compound 1 µM
# [11] = second compound 0.1 µM, first compound 3.16 µM
# [12] = second compound 0.1 µM, first compound 10 µM
# [13] = second compound 0.316 µM, first compound 0.0316 µM
# [14] = second compound 0.316 µM, first compound 0.1 µM
# [15] = second compound 0.316 µM, first compound 0.316 µM
# [16] = second compound 0.316 µM, first compound 1 µM
# [17] = second compound 0.316 µM, first compound 3.16 µM
# [18] = second compound 0.316 µM, first compound 10 µM
# [19] = second compound 1 µM, first compound 0.0316 µM
# [20] = second compound 1 µM, first compound 0.1 µM
# [21] = second compound 1 µM, first compound 0.316 µM
# [22] = second compound 1 µM, first compound 1 µM
# [23] = second compound 1 µM, first compound 3.16 µM
# [24] = second compound 1 µM, first compound 10 µM
# [25] = second compound 3.16 µM, first compound 0.0316 µM
# [26] = second compound 3.16 µM, first compound 0.1 µM
# [27] = second compound 3.16 µM, first compound 0.316 µM
# [28] = second compound 3.16 µM, first compound 1 µM
# [29] = second compound 3.16 µM, first compound 3.16 µM
# [30] = second compound 3.16 µM, first compound 10 µM
# [31] = second compound 10 µM, first compound 0.0316 µM
# [32] = second compound 10 µM, first compound 0.1 µM
# [33] = second compound 10 µM, first compound 0.316 µM
# [34] = second compound 10 µM, first compound 1 µM
# [35] = second compound 10 µM, first compound 3.16 µM
# [36] = second compound 10 µM, first compound 10 µM
# 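Also: spheroids exposed to compounds for one week before readout.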
# 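For viability, T/C in this document: luminescence used as stand-in measure of viable cells; 100% = DMSO vehicle control viability.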
structure (smiles),measurement,setting,value
C#Cc1c(F)ccc2cc(O)cc(-c3ncc4c(N5CC6CCC(C5)N6)nc(OCC56CCCN5CC(F)C6)nc4c3F)c12 (stereo not given) + Cc1cccc(N(C)C(=O)C2C(O)CCN2c2nc(C)cc(C(F)(F)F)c2C#N)c1,pIC50,second compound 0.0316 µM,< 5.00
same,pIC50,second compound 0.1 µM,< 5.00
same,pIC50,second compound 0.316 µM,< 5.00
same,pIC50,second compound 1 µM,< 5.00
same,pIC50,second compound 3.16 µM,< 5.00
same,pIC50,second compound 10 µM,< 5.00
same,"viability, T/C",[1],96.9%
same,"viability, T/C",[2],95.5%
same,"viability, T/C",[3],104%
same,"viability, T/C",[4],104%
same,"viability, T/C",[5],111%
same,"viability, T/C",[6],101%
same,"viability, T/C",[7],91.2%
same,"viability, T/C",[8],99.8%
same,"viability, T/C",[9],91%
same,"viability, T/C",[10],99.8%
same,"viability, T/C",[11],104%
same,"viability, T/C",[12],102%
same,"viability, T/C",[13],112%
same,"viability, T/C",[14],102%
same,"viability, T/C",[15],100%
same,"viability, T/C",[16],115%
same,"viability, T/C",[17],113%
same,"viability, T/C",[18],104%
same,"viability, T/C",[19],101%
same,"viability, T/C",[20],106%
same,"viability, T/C",[21],92.9%
same,"viability, T/C",[22],117%
same,"viability, T/C",[23],106%
same,"viability, T/C",[24],109%
same,"viability, T/C",[25],113%
same,"viability, T/C",[26],98.8%
same,"viability, T/C",[27],104%
same,"viability, T/C",[28],115%
same,"viability, T/C",[29],91.3%
same,"viability, T/C",[30],98.7%
same,"viability, T/C",[31],105%
same,"viability, T/C",[32],95.4%
same,"viability, T/C",[33],95.6%
same,"viability, T/C",[34],98%
same,"viability, T/C",[35],101%
same,"viability, T/C",[36],98.4%
CC1COCCN1c1cc(C2(O)CC3CCC(C2)O3)c2cnn(-c3ccn[nH]3)c2n1 (stereo not given) + Cc1cccc(N(C)C(=O)C2C(O)CCN2c2nc(C)cc(C(F)(F)F)c2C#N)c1,pIC50,second compound 0.0316 µM,> 7.50
same,pIC50,second compound 0.1 µM,> 7.50
same,pIC50,second compound 0.316 µM,> 7.50
same,pIC50,second compound 1 µM,> 7.50
same,pIC50,second compound 3.16 µM,> 7.50
same,pIC50,second compound 10 µM,> 7.50
same,"viability, T/C",[1],18.2%
same,"viability, T/C",[2],7.78%
same,"viability, T/C",[3],5.17%
same,"viability, T/C",[4],4.79%
same,"viability, T/C",[5],4.69%
same,"viability, T/C",[6],4.06%
same,"viability, T/C",[7],17.1%
same,"viability, T/C",[8],6.52%
same,"viability, T/C",[9],4.78%
same,"viability, T/C",[10],4.34%
same,"viability, T/C",[11],5.05%
same,"viability, T/C",[12],5.28%
same,"viability, T/C",[13],17.9%
same,"viability, T/C",[14],5.44%
same,"viability, T/C",[15],5.64%
same,"viability, T/C",[16],4.91%
same,"viability, T/C",[17],4.67%
same,"viability, T/C",[18],4.41%
same,"viability, T/C",[19],24.7%
same,"viability, T/C",[20],6.22%
same,"viability, T/C",[21],4.58%
same,"viability, T/C",[22],4.12%
same,"viability, T/C",[23],4.85%
same,"viability, T/C",[24],5.19%
same,"viability, T/C",[25],20.4%
same,"viability, T/C",[26],6.14%
same,"viability, T/C",[27],5.01%
same,"viability, T/C",[28],4.84%
same,"viability, T/C",[29],4.41%
same,"viability, T/C",[30],4.56%
same,"viability, T/C",[31],21.4%
same,"viability, T/C",[32],6.79%
same,"viability, T/C",[33],5.41%
same,"viability, T/C",[34],5.44%
same,"viability, T/C",[35],4.9%
same,"viability, T/C",[36],4.36%
CCc1cc2c(N3CCc4c(cc(Cn5ccnc5)cc4-c4cn(C)nc4C(F)(F)F)C3=O)cc(C)nc2c(OC)n1 + Cc1cccc(N(C)C(=O)C2C(O)CCN2c2nc(C)cc(C(F)(F)F)c2C#N)c1,pIC50,second compound 0.0316 µM,< 5.00
same,pIC50,second compound 0.1 µM,< 5.00
same,pIC50,second compound 0.316 µM,< 5.00
same,pIC50,second compound 1 µM,< 5.00
same,pIC50,second compound 3.16 µM,< 5.00
same,pIC50,second compound 10 µM,< 5.00
same,"viability, T/C",[1],92.6%
same,"viability, T/C",[2],98.2%
same,"viability, T/C",[3],82%
same,"viability, T/C",[4],91.5%
same,"viability, T/C",[5],90%
same,"viability, T/C",[6],77.1%
same,"viability, T/C",[7],93%
same,"viability, T/C",[8],89.3%
same,"viability, T/C",[9],83%
same,"viability, T/C",[10],89.8%
same,"viability, T/C",[11],81%
same,"viability, T/C",[12],71.7%
same,"viability, T/C",[13],97.7%
same,"viability, T/C",[14],91.4%
same,"viability, T/C",[15],95.1%
same,"viability, T/C",[16],89.7%
same,"viability, T/C",[17],85.1%
same,"viability, T/C",[18],80.2%
same,"viability, T/C",[19],102%
same,"viability, T/C",[20],81.4%
same,"viability, T/C",[21],84.5%
same,"viability, T/C",[22],91.7%
same,"viability, T/C",[23],88.7%
same,"viability, T/C",[24],74.7%
same,"viability, T/C",[25],92.3%
same,"viability, T/C",[26],99.7%
same,"viability, T/C",[27],90.7%
same,"viability, T/C",[28],89.8%
same,"viability, T/C",[29],84.8%
same,"viability, T/C",[30],87.9%
same,"viability, T/C",[31],90.3%
same,"viability, T/C",[32],95.7%
same,"viability, T/C",[33],89.2%
same,"viability, T/C",[34],91.7%
same,"viability, T/C",[35],81.2%
same,"viability, T/C",[36],81.7%
COc1cc2cc(C(=O)CCC(=O)O)sc2cc1OC + Cc1cccc(N(C)C(=O)C2C(O)CCN2c2nc(C)cc(C(F)(F)F)c2C#N)c1,pIC50,second compound 0.0316 µM,< 5.00
same,pIC50,second compound 0.1 µM,< 5.00
same,pIC50,second compound 0.316 µM,< 5.00
same,pIC50,second compound 1 µM,< 5.00
same,pIC50,second compound 3.16 µM,< 5.00
same,pIC50,second compound 10 µM,< 5.00
same,"viability, T/C",[1],101%
same,"viability, T/C",[2],103%
same,"viability, T/C",[3],101%
same,"viability, T/C",[4],104%
same,"viability, T/C",[5],116%
same,"viability, T/C",[6],99%
same,"viability, T/C",[7],103%
same,"viability, T/C",[8],98.7%
same,"viability, T/C",[9],98.7%
same,"viability, T/C",[10],102%
same,"viability, T/C",[11],100%
same,"viability, T/C",[12],101%
same,"viability, T/C",[13],99.7%
same,"viability, T/C",[14],107%
same,"viability, T/C",[15],101%
same,"viability, T/C",[16],104%
same,"viability, T/C",[17],91.5%
same,"viability, T/C",[18],109%
same,"viability, T/C",[19],111%
same,"viability, T/C",[20],101%
same,"viability, T/C",[21],95.3%
same,"viability, T/C",[22],103%
same,"viability, T/C",[23],100%
same,"viability, T/C",[24],100%
same,"viability, T/C",[25],110%
same,"viability, T/C",[26],112%
same,"viability, T/C",[27],99.1%
same,"viability, T/C",[28],102%
same,"viability, T/C",[29],97.3%
same,"viability, T/C",[30],115%
same,"viability, T/C",[31],98.8%
same,"viability, T/C",[32],112%
same,"viability, T/C",[33],109%
same,"viability, T/C",[34],105%
same,"viability, T/C",[35],103%
same,"viability, T/C",[36],109%
O=C(Nc1ccc(O)c(NS(=O)(=O)c2ccc(F)cc2)c1)c1ccc(-c2ccccc2)cc1 + Cc1cccc(N(C)C(=O)C2C(O)CCN2c2nc(C)cc(C(F)(F)F)c2C#N)c1,pIC50,second compound 0.0316 µM,< 5.00
same,pIC50,second compound 0.1 µM,< 5.00
same,pIC50,second compound 0.316 µM,< 5.00
same,pIC50,second compound 1 µM,< 5.00
same,pIC50,second compound 3.16 µM,< 5.00
same,pIC50,second compound 10 µM,< 5.00
same,"viability, T/C",[1],112%
same,"viability, T/C",[2],120%
same,"viability, T/C",[3],105%
same,"viability, T/C",[4],106%
same,"viability, T/C",[5],101%
same,"viability, T/C",[6],63.4%
same,"viability, T/C",[7],98.5%
same,"viability, T/C",[8],101%
same,"viability, T/C",[9],100%
same,"viability, T/C",[10],104%
same,"viability, T/C",[11],100%
same,"viability, T/C",[12],62.7%
same,"viability, T/C",[13],109%
same,"viability, T/C",[14],94.3%
same,"viability, T/C",[15],93.3%
same,"viability, T/C",[16],101%
same,"viability, T/C",[17],102%
same,"viability, T/C",[18],66.9%
same,"viability, T/C",[19],115%
same,"viability, T/C",[20],95.5%
same,"viability, T/C",[21],109%
same,"viability, T/C",[22],103%
same,"viability, T/C",[23],103%
same,"viability, T/C",[24],63.3%
same,"viability, T/C",[25],99.2%
same,"viability, T/C",[26],106%
same,"viability, T/C",[27],113%
same,"viability, T/C",[28],99.3%
same,"viability, T/C",[29],94.2%
same,"viability, T/C",[30],71.6%
same,"viability, T/C",[31],98.1%
same,"viability, T/C",[32],106%
same,"viability, T/C",[33],114%
same,"viability, T/C",[34],106%
same,"viability, T/C",[35],95.3%
same,"viability, T/C",[36],61.7%

# — PubChem BioAssay AID1963847 (Molecular Pharmacology Branch, DTP, NCI, 2024)
